Assay results from patent publication US20060089378A1 (priority 2004, published 2006).
Where two headings read alike, the source gives them in different places.

Legend:
[1] = target: T1, Cannabinoid CB2 Receptor (Homo sapiens, UniProt P34972); assay: Binding assay for CB2 agonists or inverse agonists (radioligand competition, membranes of transfected SK-N-MC cells); conditions: read-out: Cannabinoid CB2 Receptor Binding percent inhibition
T1 construct: expressed in transfected cells

[2] = target: T2, Cannabinoid CB1 Receptor (Homo sapiens, UniProt P21554); assay: Binding assay for CB1 agonists or inverse agonists (radioligand competition, membranes of transfected SK-N-MC cells)
T2 construct: expressed in transfected cells
T2 sequence (P21554 whole entry): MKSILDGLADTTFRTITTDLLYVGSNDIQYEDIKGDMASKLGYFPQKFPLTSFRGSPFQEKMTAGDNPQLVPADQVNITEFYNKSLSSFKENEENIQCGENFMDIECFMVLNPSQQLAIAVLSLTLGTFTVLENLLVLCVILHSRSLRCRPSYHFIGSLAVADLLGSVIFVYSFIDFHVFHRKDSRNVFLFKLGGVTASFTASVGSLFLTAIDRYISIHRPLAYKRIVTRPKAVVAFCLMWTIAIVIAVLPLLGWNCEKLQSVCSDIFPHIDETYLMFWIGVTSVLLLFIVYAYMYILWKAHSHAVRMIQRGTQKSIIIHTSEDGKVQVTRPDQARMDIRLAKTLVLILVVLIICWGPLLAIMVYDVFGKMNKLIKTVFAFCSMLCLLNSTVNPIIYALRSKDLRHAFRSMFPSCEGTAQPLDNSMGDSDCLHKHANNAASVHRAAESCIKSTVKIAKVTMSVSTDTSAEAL

[3] = target: CB1 receptor (human) (Homo sapiens, UniProt P21554); assay: cell-based
CB1 receptor (human), sequence (P21554 whole entry): as above

[4] = test concentration of 0.2 μM, compounds without an IC50 binding value

T1 sequence (P34972 whole entry): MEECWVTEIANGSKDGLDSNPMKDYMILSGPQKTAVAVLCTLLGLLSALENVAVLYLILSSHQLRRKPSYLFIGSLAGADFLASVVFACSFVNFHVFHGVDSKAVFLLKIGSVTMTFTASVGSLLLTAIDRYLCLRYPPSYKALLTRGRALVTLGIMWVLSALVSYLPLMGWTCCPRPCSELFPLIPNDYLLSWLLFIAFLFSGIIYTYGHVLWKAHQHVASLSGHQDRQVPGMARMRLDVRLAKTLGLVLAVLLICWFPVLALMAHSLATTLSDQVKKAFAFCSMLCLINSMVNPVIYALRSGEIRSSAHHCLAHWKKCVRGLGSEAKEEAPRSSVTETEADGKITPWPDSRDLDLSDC

Structure (SMILES)	inhibition at 0.2 µM [1]	IC50 [2]	EC50 [3]	inhibition at 0.2 µM [1, 4]	inhibition at 0.2 µM ([2]; read-out: Cannabinoid CB1 Receptor Binding percent inhibition)
COc1ccc(/C=C2\CN(S(C)(=O)=O)Cc3c(C(=O)NN4CCCCC4)nn(-c4ccc(Cl)cc4Cl)c32)cc1 [Cpd 53, (7E)-1-(2,4-dichloro-phenyl)-5-methanesulfonyl-7-(4-methoxy-benzylidene)-4,5,6,7-tetrahydro-1H-pyrazolo[4,3-c]pyridine-3-carboxylic acid piperidin-1-ylamide]	29%	30 nM	5 nM	–	–
COc1ccc(/C=C2\CN(C(C)=O)Cc3c(C(=O)NN4CCCCC4)nn(-c4ccc(Cl)cc4Cl)c32)cc1 [Cpd 54, (7E)-5-acetyl-1-(2,4-dichloro-phenyl)-7-(4-methoxy-benzylidene)-4,5,6,7-tetrahydro-1H-pyrazolo[4,3-c]pyridine-3-carboxylic acid piperidin-1-ylamide]	24%	40 nM	5 nM	–	–
COC(=O)N1C/C(=C\c2ccc(OC)cc2)c2c(c(C(=O)NN3CCCCC3)nn2-c2ccc(Cl)cc2Cl)C1 [Cpd 55, (7E)-1-(2,4-dichloro-phenyl)-7-(4-methoxy-benzylidene)-3-(piperidin-1-ylcarbamoyl)-1,4,6,7-tetrahydro-pyrazolo[4,3-c]pyridine-5-carboxylic acid methyl ester]	66%	5 nM	2 nM	–	–
CCNC(=O)N1C/C(=C\c2ccc(OC)cc2)c2c(c(C(=O)NN3CCCCC3)nn2-c2ccc(Cl)cc2Cl)C1 [Cpd 56, (7E)-1-(2,4-dichloro-phenyl)-7-(4-methoxy-benzylidene)-1,4,6,7-tetrahydro-pyrazolo[4,3-c]pyridine-3,5-dicarboxylic acid 5-ethylamide 3-piperidin-1-ylamide]	28%	20 nM	7 nM	–	–
C[C@@H](NC(=O)c1nn(-c2ccc(Cl)cc2)c2c1CN(C(=O)OC(C)(C)C)C/C2=C\c1ccc(F)cc1)c1ccccc1 [Cpd 57, (7E)-1-(4-chloro-phenyl)-7-(4-fluoro-benzylidene)-3-[(1R)-1-phenyl-ethylcarbamoyl]-1,4,6,7-tetrahydro-pyrazolo[4,3-c]pyridine-5-carboxylic acid tert-butyl ester]	–	30 nM	20 nM	13%	–
COc1ccc(/C=C2\CN(S(=O)(=O)N(C)C)Cc3c(C(=O)NN4CCCCC4)nn(-c4ccc(Cl)cc4Cl)c32)cc1 [Cpd 58, (7E)-1-(2,4-dichloro-phenyl)-5-dimethylsulfamoyl-7-(4-methoxy-benzylidene)-4,5,6,7-tetrahydro-1H-pyrazolo[4,3-c]pyridine-3-carboxylic acid piperidin-1-ylamide]	53%	20 nM	3 nM	–	–
CCOC(=O)CN1C/C(=C\c2ccc(OC)cc2)c2c(c(C(=O)NN3CCCCC3)nn2-c2ccc(Cl)cc2Cl)C1 [Cpd 59, (7E)-[1-(2,4-dichloro-phenyl)-7-(4-methoxy-benzylidene)-3-(piperidin-1-ylcarbamoyl)-1,4,6,7-tetrahydro-pyrazolo[4,3-c]pyridin-5-yl]-acetic acid ethyl ester]	23%	40 nM	30 nM	–	–
COc1ccc(/C=C2\CN(C(C)=O)Cc3c(C(=O)NC(C)c4ccccn4)nn(-c4ccc(Cl)cc4Cl)c32)cc1 (stereo not drawn) [Cpd 60, (7E)-5-acetyl-1-(2,4-dichloro-phenyl)-7-(4-methoxy-benzylidene)-4,5,6,7-tetrahydro-1H-pyrazolo[4,3-c]pyridine-3-carboxylic acid (1-pyridin-2-yl-ethyl)-amide]	–	20 nM	7 nM	28%	–
CCNC(=O)N1C/C(=C\c2ccc(OC)cc2)c2c(c(C(=O)NC(C)c3ccccn3)nn2-c2ccc(Cl)cc2Cl)C1 (stereo not drawn) [Cpd 61, (7E)-1-(2,4-dichloro-phenyl)-7-(4-methoxy-benzylidene)-1,4,6,7-tetrahydro-pyrazolo[4,3-c]pyridine-3,5-dicarboxylic acid 5-ethylamide 3-[(1-pyridin-2-yl-ethyl)-amide]]	7%	20 nM	5 nM	–	–
COC(=O)N1C/C(=C\c2ccc(OC)cc2)c2c(c(C(=O)NC(C)c3ccccn3)nn2-c2ccc(Cl)cc2Cl)C1 (stereo not drawn) [Cpd 62, (7E)-1-(2,4-dichloro-phenyl)-7-(4-methoxy-benzylidene)-3-(1-pyridin-2-yl-ethylcarbamoyl)-1,4,6,7-tetrahydro-pyrazolo[4,3-c]pyridine-5-carboxylic acid methyl ester]	70%	5 nM	2 nM	–	–
COc1ccc(/C=C2\CN(S(C)(=O)=O)Cc3c(C(=O)NC(C)c4ccccn4)nn(-c4ccc(Cl)cc4Cl)c32)cc1 (stereo not drawn) [Cpd 63, (7E)-1-(2,4-dichloro-phenyl)-5-methanesulfonyl-7-(4-methoxy-benzylidene)-4,5,6,7-tetrahydro-1H-pyrazolo[4,3-c]pyridine-3-carboxylic acid (1-pyridin-2-yl-ethyl)-amide]	48%	6 nM	3 nM	–	–
COc1ccc(/C=C2\CN(S(=O)(=O)N(C)C)Cc3c(C(=O)NC(C)c4ccccn4)nn(-c4ccc(Cl)cc4Cl)c32)cc1 (stereo not drawn) [Cpd 64, (7E)-1-(2,4-dichloro-phenyl)-5-dimethylsulfamoyl-7-(4-methoxy-benzylidene)-4,5,6,7-tetrahydro-1H-pyrazolo[4,3-c]pyridine-3-carboxylic acid (1-pyridin-2-yl-ethyl)-amide]	62%	6 nM	1 nM	–	–
CCOC(=O)CN1C/C(=C\c2ccc(OC)cc2)c2c(c(C(=O)NC(C)c3ccccn3)nn2-c2ccc(Cl)cc2Cl)C1 (stereo not drawn) [Cpd 65, (7E)-[1-(2,4-dichloro-phenyl)-7-(4-methoxy-benzylidene)-3-(1-pyridin-2-yl-ethylcarbamoyl)-1,4,6,7-tetrahydro-pyrazolo[4,3-c]pyridin-5-yl]-acetic acid ethyl ester]	39%	10 nM	9 nM	–	–
C[C@@H](NC(=O)c1nn(-c2ccc(Cl)cc2)c2c1CNC/C2=C\c1ccc(F)cc1)c1ccccc1 [Cpd 66, (7E)-1-(4-chloro-phenyl)-7-(4-fluoro-benzylidene)-4,5,6,7-tetrahydro-1H-pyrazolo[4,3-c]pyridine-3-carboxylic acid [(1R)-1-phenyl-ethyl]-amide]	–	20 nM	10 nM	5%	–
COC(=O)N1C/C(=C\c2ccc(F)cc2)c2c(c(C(=O)N[C@H](C)c3ccccc3)nn2-c2ccc(Cl)cc2)C1 [Cpd 67, (7E)-1-(4-chloro-phenyl)-7-(4-fluoro-benzylidene)-3-[(1R)-1-phenyl-ethylcarbamoyl]-1,4,6,7-tetrahydro-pyrazolo[4,3-c]pyridine-5-carboxylic acid methyl ester]	19%	5 nM	1 nM	–	–
CC(=O)N1C/C(=C\c2ccc(F)cc2)c2c(c(C(=O)N[C@H](C)c3ccccc3)nn2-c2ccc(Cl)cc2)C1 [Cpd 68, (7E)-5-acetyl-1-(4-chloro-phenyl)-7-(4-fluoro-benzylidene)-4,5,6,7-tetrahydro-1H-pyrazolo[4,3-c]pyridine-3-carboxylic acid [(1R)-1-phenyl-ethyl]-amide]	11%	20 nM	3 nM	–	–
CCNC(=O)N1C/C(=C\c2ccc(F)cc2)c2c(c(C(=O)N[C@H](C)c3ccccc3)nn2-c2ccc(Cl)cc2)C1 [Cpd 69, (7E)-1-(4-chloro-phenyl)-7-(4-fluoro-benzylidene)-1,4,6,7-tetrahydro-pyrazolo[4,3-c]pyridine-3,5-dicarboxylic acid 5-ethylamide 3-{[(1R)-1-phenyl-ethyl]-amide}]	0%	30 nM	5 nM	–	–
C[C@@H](NC(=O)c1nn(-c2ccc(Cl)cc2)c2c1CN(S(=O)(=O)N(C)C)C/C2=C\c1ccc(F)cc1)c1ccccc1 [Cpd 70, (7E)-1-(4-chloro-phenyl)-5-dimethylsulfamoyl-7-(4-fluoro-benzylidene)-4,5,6,7-tetrahydro-1H-pyrazolo[4,3-c]pyridine-3-carboxylic acid [(1R)-1-phenyl-ethyl]-amide]	13%	9 nM	1 nM	–	–
C[C@@H](NC(=O)c1nn(-c2ccc(Cl)cc2)c2c1CN(S(C)(=O)=O)C/C2=C\c1ccc(F)cc1)c1ccccc1 [Cpd 71, (7E)-1-(4-chloro-phenyl)-7-(4-fluoro-benzylidene)-5-methanesulfonyl-4,5,6,7-tetrahydro-1H-pyrazolo[4,3-c]pyridine-3-carboxylic acid [(1R)-1-phenyl-ethyl]-amide]	3%	4 nM	1 nM	–	–
CCOC(=O)CN1C/C(=C\c2ccc(F)cc2)c2c(c(C(=O)N[C@H](C)c3ccccc3)nn2-c2ccc(Cl)cc2)C1 [Cpd 72, (7E)-[1-(4-chloro-phenyl)-7-(4-fluoro-benzylidene)-3-[(1R)-1-phenyl-ethylcarbamoyl]-1,4,6,7-tetrahydro-pyrazolo[4,3-c]pyridin-5-yl]-acetic acid ethyl ester]	17%	10 nM	5 nM	–	–
CC(NC(=O)c1nn(-c2ccc(Cl)cc2)c2c1CNC/C2=C\c1ccc(F)cc1)c1ccccn1 (stereo not drawn) [Cpd 75, (7E)-1-(4-chloro-phenyl)-7-(4-fluoro-benzylidene)-4,5,6,7-tetrahydro-1H-pyrazolo[4,3-c]pyridine-3-carboxylic acid (1-pyridin-2-yl-ethyl)-amide]	0%	200 nM	40 nM	–	–
O=C(NN1CCCCC1)c1nn(-c2ccc(Cl)cc2)c2c1CNC/C2=C\c1ccc(F)cc1 [Cpd 76, (7E)-1-(4-chloro-phenyl)-7-(4-fluoro-benzylidene)-4,5,6,7-tetrahydro-1H-pyrazolo[4,3-c]pyridine-3-carboxylic acid piperidin-1-ylamide]	0%	–	30 nM	–	48%
